From ChEMBL document CHEMBL5608234, “Heat Shock Protein 90 Interactome-Mediated Proteolysis Targeting Chimera (HIM-PROTAC) Degrading Glutathione Peroxidase 4 to Trigger Ferroptosis” (J Med Chem, 2024)
The source made the active and inactive calls. The rule behind the calls is not given here.

How the values were obtained:
[1] = tested on: HT-1080; test: HIM-PROTAC activity at GPX4/HSP90/E3 ligase in human HT-1080 cells assessed as reduction in GPX4 level at 0.1 to 3 uM incubated for 24 hrs by Western blotting analysis; assay type: cell-based; conditions: dose 0.1-3 µM
[2] = HIM-PROTAC activity at GPX4/HSP90/E3 ligase in human HT-1080 cells assessed as reduction in GPX4 level incubated for 24 hrs by Western blotting analysis; assay type: cell-based; conditions: HT-1080, 24 h
[3] = tested on: B16-F10; test: HIM-PROTAC activity at GPX4/HSP90/E3 ligase in mouse B16-F10 cells assessed as reduction in GPX4 level at 0.1 to 3 uM incubated for 24 hrs by Western blotting analysis; assay type: cell-based; conditions: dose 0.1-3 µM
[4] = tested on: MDA-MB-231; test: HIM-PROTAC activity at GPX4/HSP90/E3 ligase in human MDA-MB-231 cells assessed as reduction in GPX4 level at 0.1 to 3 uM incubated for 24 hrs by Western blotting analysis; assay type: cell-based; conditions: dose 0.1-3 µM
[5] = tested on: HT-1080; test: HIM-PROTAC activity at GPX4/HSP90/E3 ligase in human HT-1080 cells assessed as reduction in GPX4 level at 1 uM incubated for 12 hrs by Western blotting analysis; assay type: cell-based
[6] = tested on: HT-1080; test: Upregulation of GPX4 protein level in human HT-1080 cells at 1 uM incubated for 4 hrs by Western blotting analysis; assay type: functional, cell-based
[7] = tested on: HT-1080; test: Downregulation of GPX4 protein level in human HT-1080 cells at 1 uM incubated for 24 hrs by proteomics analysis; assay type: functional, cell-based
[8] = tested on: HT-1080; test: HIM-PROTAC activity at GPX4/HSP90/E3 ligase in human HT-1080 cells assessed as reduction in GPX4 level at 1 uM preincubated with MG132 for 2 hrs followed by compound addition and measured after 24 hrs by Western blotting analysis; assay type: cell-based
[9] = tested on: HT-1080; test: HIM-PROTAC activity at GPX4/HSP90/E3 ligase in human HT-1080 cells assessed as reduction in GPX4 level at 1 uM preincubated with 6-chloro-9-((4-methoxy-3,5-dimethylpyridin-2-yl)methyl)-9H-purin-2-amine for 2 hrs followed by compound addition and measured after 24 hrs by Western blotting analysis; assay type: cell-based
[10] = tested on: HT-1080; test: HIM-PROTAC activity at GPX4/HSP90/E3 ligase in human HT-1080 cells assessed as reduction in GPX4 level at 1 uM preincubated with 2-chloro-N-(3-chloro-4-methoxyphenyl)-N-(2-oxo-2-(phenethylamino)-1-(thiophen-2-yl)ethyl)acetamide for 2 hrs followed by compound addition and measured after 24 hrs by Western blotting analysis; assay type: cell-based
[11] = molecular target: Heat shock protein HSP 90-alpha (Homo sapiens, UniProt P07900); test: Binding affinity to recombinant human HSP90alpha by SPR assay
[12] = tested on: HT-1080; test: HIM-PROTAC activity at GPX4/HSP90/E3 ligase in HSP90-knockdown human HT-1080 cells assessed as GPX4 degradation at 0.3 to 1 uM incubated for 24 hrs by Western blotting analysis; assay type: cell-based; conditions: dose 0.3-1 µM
[13] = tested on: HT-1080; test: Induction of HSP90/GPX4 protein protein interaction in human HT-1080 cells assessed as ternary complex formation at 5 uM incubated for 12 hrs by co-immunoprecipitation method; assay type: cell-based; conditions: filed as activator
[14] = molecular target: T1, Phospholipid hydroperoxide glutathione peroxidase GPX4 (Homo sapiens) (UniProt P36969); test: Induction of GPX4 ubiquitination in human HT-1080 cells at 1 uM incubated for 12 hrs by SDS-PAGE assay; assay type: cell-based; conditions: filed as activator
T1 sequence (whole entry): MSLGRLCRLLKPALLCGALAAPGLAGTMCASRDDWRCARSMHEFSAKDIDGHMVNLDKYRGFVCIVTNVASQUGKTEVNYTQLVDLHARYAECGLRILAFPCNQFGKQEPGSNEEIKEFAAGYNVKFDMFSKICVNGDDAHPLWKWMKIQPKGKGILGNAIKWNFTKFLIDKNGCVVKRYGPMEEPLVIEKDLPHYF

[15] = tested on: HT-1080; test: Cytotoxicity against human HT-1080 cells incubated for 48 hrs by CCK-8 assay; assay type: functional, cell-based; conditions: HT-1080, 48 h
[16] = tested on: HT-1080; test: Cytotoxicity against human HT-1080 cells incubated for 48 hrs in presence of Fer-1 by CCK-8 assay; assay type: functional, cell-based; conditions: HT-1080, 48 h
[17] = tested on: HT-1080; test: Induction of ferroptosis in human HT-1080 cells assessed as fold increase in cytotoxic IC50 incubated for 48 hrs in presence of Fer-1 by CCK-8 assay; assay type: functional
[18] = tested on: HT-1080; test: Induction of ferroptosis in human HT-1080 cells assessed as increase in Fe2+ level at 1 uM incubated for 24 hrs by FerroOrange staining based confocal laser scanning microscopic analysis; assay type: functional, cell-based
[19] = tested on: HT-1080; test: Induction of ferroptosis in human HT-1080 cells assessed as ruptured mitochondria at 1 uM incubated for 24 hrs by TEM analysis; assay type: functional, cell-based
[20] = tested on: HT-1080; test: Induction of ferroptosis in human HT-1080 cells assessed as reduction in mitochondrial crests at 1 uM incubated for 24 hrs by TEM analysis; assay type: functional, cell-based
[21] = tested on: HT-1080; test: Induction of ferroptosis in human HT-1080 cells assessed as broken mitochondrial outer membrane at 1 uM incubated for 24 hrs by TEM analysis; assay type: functional, cell-based
[22] = tested on: HT-1080; test: Induction of ferroptosis in human HT-1080 cells assessed as appearance of autophagosome-like structures at 1 uM incubated for 24 hrs by TEM analysis; assay type: functional, cell-based
[23] = Cmax in ICR mouse at 25 mg/kg, ip measured upto 24 hrs by LC-MS/MS analysis; assay type: ADME, organism-based; conditions: in vivo
[24] = MRT(infinity) in ICR mouse at 25 mg/kg, ip measured upto 24 hrs by LC-MS/MS analysis; assay type: ADME, organism-based; conditions: in vivo
[25] = AUCinfinity in ICR mouse at 25 mg/kg, ip measured upto 24 hrs by LC-MS/MS analysis; assay type: ADME, organism-based; conditions: in vivo
[26] = Toxicity in BALB/c mouse xenografted with human HT-1080 cells assessed as reduction in body weight at 25 to 50 mg/kg, ip administered once daily; assay type: organism-based; conditions: in vivo, dose 25-50 mg/kg
[27] = Toxicity in BALB/c mouse xenografted with human HT-1080 cells assessed as change in spleen morphology at 25 to 50 mg/kg, ip administered once daily by H and E staining based assay; assay type: organism-based; conditions: in vivo, dose 25-50 mg/kg
[28] = Toxicity in BALB/c mouse xenografted with human HT-1080 cells assessed as change in kidney morphology at 25 to 50 mg/kg, ip administered once daily by H and E staining based assay; assay type: organism-based; conditions: in vivo, dose 25-50 mg/kg
[29] = tested on: Mus musculus; test: Upregulation of 4-HNE level in ip dosed BALB/c mouse xenografted with human HT-1080 cells administered once daily by immunohistochemistry analysis; assay type: functional, organism-based; conditions: dose 25-50 mg/kg
[30] = tested on: Mus musculus; test: Effect on HSP90 level in BALB/c mouse xenografted with human HT-1080 cells at 25 to 50 mg/kg, ip administered once daily by immunohistochemistry analysis; assay type: functional, organism-based; conditions: dose 25-50 mg/kg
[31] = Toxicity in BALB/c mouse xenografted with human HT-1080 cells assessed as animal death at 50 mg/kg, ip administered once daily measured after 10 days; assay type: organism-based; conditions: in vivo, 240 h, time 10 day
[32] = tested on: Mus musculus; test: Downregulation of GPX4 protein level in BALB/c mouse tumor xenografted with human HT-1080 cells at 50 to 100 mg/kg, ip measured upto 36 hrs; assay type: functional, organism-based; conditions: dose 50-100 mg/kg

| Structure (SMILES) | Activity [1] | DC50 [2] | Activity [3] | Activity [4] | Activity [5] | Activity [6] | Activity [7] | Activity [8] | Activity [9] | Activity [10] | Kd [11] | Activity [12] | Activity [13] | Activity [14] | IC50 [15] | IC50 [16] | fold change (FC) [17] | Activity [18] | Activity [19] | Activity [20] | also measured |
| --- | --- | --- | --- | --- | --- | --- | --- | --- | --- | --- | --- | --- | --- | --- | --- | --- | --- | --- | --- | --- | --- |
| COc1c(C)cnc(Cn2cnc3c(NCCOCCOCCOCCn4cc(COc5ccc(N(C(=O)CCl)C(C(=O)NCCc6ccccc6)c6cccs6)cc5Cl)nn4)nc(N)nc32)c1C (centres undefined) | Active | 180 nM | Active | inactive | Active | Active | Active | inactive | inactive | inactive | 2770 nM | inactive | Active | Active | 1300 nM | 4400 nM | 2 | Active | Active | Active | Activity [21]: Active; Activity [22]: Active; Cmax [23]: 139 ng/mL; MRT inf [24]: 8.2 h; AUC(0-inf) [25]: 1030 ng·h/mL; Activity [26]: Toxic; Activity [27]: Non-Toxic; Activity [28]: Non-Toxic; Activity [29]: Dose-Dependent Effect; Activity [30]: inactive; Activity [31]: Non-Toxic; Activity [32]: Active |
| COc1c(C)cnc(Cn2cnc3c(NCCC4CCN(C(=O)Cn5cc(COc6ccc(N(C(=O)CCl)C(C(=O)NCCc7ccccc7)c7cccs7)cc6Cl)nn5)CC4)nc(N)nc32)c1C (centres undefined) | Active | 80 nM | Active | inactive | Active | Active | Active | inactive | inactive | inactive | 190 nM | inactive | Active | Active | 740 nM | 35500 nM | 45 | Active | Active | Active | Activity [21]: Active; Activity [22]: Active; Cmax [23]: 53.1 ng/mL; MRT inf [24]: 6.2 h; AUC(0-inf) [25]: 346 ng·h/mL; Activity [26]: Toxic; Activity [27]: Non-Toxic; Activity [28]: Non-Toxic; Activity [29]: Dose-Dependent Effect; Activity [30]: inactive; Activity [31]: Non-Toxic; Activity [32]: Active |
